Patent publication US8435950B2, “Anti-aging peptides and cosmetic and/or pharmaceutical composition containing same” (ISP Investments, priority 2009, dated 2013)
Where no end group is shown, it is not given here.

Experiments:
Clock protein [1] = experiment: Ex vivo immunolabeling of Clock protein in skin biopsies aged artificially during culture; format: cell-based, human
Description: (§1) A study of the activating effect of the peptide SEQ ID no.1 was carried out by evaluating the expression of Clock and Per-1 proteins in skin models, aged artificially during culture. The analysis was carried out after 62 hr and 134 hr of culturing.
(§2) Ex vivo studies by immunolabeling have made it possible to evidence the expression of Clock and Per-1 proteins in skin samples aged during culture. Samples of human skin are cultured at the air/liquid interface for 62 hr and 134 hr. The peptide SEQ ID no.1 diluted to 1% (from a 10^−4M solution) is applied topically to these samples at a rate of two times per day during the period of the experiment.
(§3) Skin samples not treated with the peptide SEQ ID no.1 serve as a control. The skin samples are fixed with 10% formaldehyde and enclosed in paraffin. Sectional cuts of 3 μm are made with a microtome. The immunolabeling is carried out after removal of the paraffin and unmasking of the antigenic sites. The immunolabeling for the Clock protein is carried out by means of an antibody (ABcam) diluted 1/250 and a secondary antibody diluted 1/50 and coupled to a fluorochrome.
(§4) The slides are then mounted in a suitable medium and observed under epifluorescence microscope (Nikon Eclipse E600).

skin biopsies = experiment: Protective effect on morphology of skin biopsies during aging (hematoxyline/eosin histology); format: cell-based, human; conditions: 62 and 134 h culture, peptide diluted to 1% topically twice per day; untreated skin damaged
Description: A study of the protective effect of the peptide SEQ ID no.1 was carried out in parallel by evaluating the damage caused by aging at 62 hr and 134 hr by way of immunohistology by means of colouration of sectional cuts of skin.
Samples of human skin are placed in culture at the air/liquid interface. The peptide SEQ ID no.1 diluted to 1% (from a 10^−4M solution) is applied topically to these samples for 62 hr and 134 hr. The application is renewed twice per day during the period of the experiment. Untreated skin samples serve as a control during the experiment. The skin samples are fixed with 4% formaldehyde and enclosed in paraffin. Sectional cuts of 3 μm are made with a microtome. The tissues are coloured using hematoxyline (which colours the cell nuclei blue-black) and eosin, which is specific to the colouration of cytoplasms. The morphological structure of the biopsies is then assessed under transmission microscope.

Per-1 protein [2] = experiment: Ex vivo immunolabeling of Per-1 protein in skin biopsies aged artificially during culture; format: cell-based, human; conditions: after 62 hr of treatment
Description: as §1, §2, §3
The immunolabeling for the Per-1 protein is carried out by a polyclonal antibody (Cosmobio) diluted 1/100 and a secondary antibody diluted 1/50 and coupled to a fluorochrome. […]

Clock protein [3] = experiment: Immunohistochemistry (immunolabeling) of Clock protein in cultured fibroblasts; format: cell-based; conditions: 18 hr, peptide diluted 1% (from a 10^-4M solution), versus untreated
Description: (§5) A study of the activating effect of the peptide SEQ ID no.1 was carried out by evaluating the expression of the Clock protein by western blot in cultured fibroblasts and by immunohistochemistry by labeling the Clock protein by means of immunolabeling. The technique of western blotting is a semi-quantitative method which makes it possible to evaluate the level of Clock protein in dermal cells.
Cultured fibroblasts are cultivated in 8-well chambers (labteck) at 37° C. in a humidified atmosphere containing 5% CO2 for 18 hr in the presence or absence of the peptide SEQ ID no.1, diluted 1% (from a 10^−4M solution). Untreated cells are cultivated at the same time and serve as a control. On the day of labeling the cells are rinsed, fixed in a mixture (2% glutaraldehyde—2% formaldehyde) for 3 minutes and then rinsed. The primary antibody (ABcam), diluted 1/250 is applied for 1 hour and a secondary antibody, diluted 1/50 and coupled to a fluorochrome is applied for 1 hour. The cells are then mounted between a slide and cover glass in a suitable mounting medium and observed under epifluorescence microscope.

Clock protein [4] = experiment: Ex vivo immunolabeling of Clock protein in skin biopsies; format: cell-based; conditions: human skin ex vivo, peptide diluted to 1%, topical, 48 hr
Description: (§6) A study of the activating effect of the peptide SEQ ID no.1 was carried out by evaluating the expression of Clock and Per-1 proteins in skin biopsies ex vivo.
(§7) Ex vivo studies by immunolabeling have made it possible to evidence the expression of Clock and Per-1 proteins in skin samples. Samples of human skin are cultured at the air/liquid interface. The peptide SEQ ID no.1 diluted to 1% (from a 10^−4M solution) is applied topically to these samples for 48 hr at a rate of two times per 24 hr.
(§8) Skin samples not treated with the peptide SEQ ID no.1 serve as a control. The skin samples are fixed with 10% formaldehyde and enclosed in paraffin. Sectional cuts of 3 μm are then made with a microtome. The immunolabeling is carried out after removal of the paraffin and unmasking of the antigenic sites.
The immunolabeling for the Clock protein is carried out by means of an antibody (ABcam) diluted 1/250 and a secondary antibody diluted 1/50 and coupled to a fluorochrome.
as §4

Per-1 protein [5] = experiment: Ex vivo immunolabeling of Per-1 protein in skin biopsies; format: cell-based; conditions: human skin ex vivo, peptide diluted to 1%, topical, 48 hr
Description: as §6, §7, §8
The immunolabeling for the Per-1 protein is carried out by a polyclonal antibody (Cosmobio) diluted 1/100 and a secondary antibody diluted 1/50 and coupled to a fluorochrome.
as §4

Clock protein [6] = experiment: Western blot of Clock protein expression in cultured fibroblasts; format: cell-based; conditions: 16 hr, peptide diluted to 1% (from a 10^-4M solution), untreated control = 100%, Experiment 1
Description: as §5
Cultured fibroblasts are cultivated in containers with a diameter of 100 mm at 37° C. in a humidified atmosphere containing 5% CO2 for 16 hr in the presence or absence of the peptide SEQ ID no.1, diluted to 1% (from a 10^−4M solution). The cells are rinsed and then removed from the support with the aid of an extraction buffer (20 mM TRIS, 150 mM NaCl, 10 mM EDTA, 0.2% triton […]) in the presence of a cocktail of protease inhibitors (Sigma). The proteins thus extracted are centrifuged at 4° C. at 10000 rpm, before being dosed by the BCA protein dosing kit (Pierce). The cellular lysates are mixed with a denaturing buffer and subjected to SDS-PAGE electrophoresis. The gel used is 4-12% Nupage (Invitrogen). The proteins are then transferred to a nitrocellulose membrane (Pal corporation). […] The quantitative evaluation of the proteins present in the cells was carried out using the chemiimager software (Alpha innotech Corporation USA).

## Ser-Pro-Leu-Gln-NH2 (SPLQ-NH2) [SEQ ID no.1]
Clock protein [1]; after 62 hr of culturing
  Labeling of the Clock protein compared to untreated control: increased
Clock protein [1]; after 134 hr
  Labeling of the Clock protein compared to untreated control skin: largely increased
Skin biopsies
  Morphological structure of skin biopsies / damage caused by aging: well-preserved morphological structure
Per-1 protein [2]
  Expression of the PER-1 protein compared to untreated: increased
Clock protein [3]
  Expression of the Clock protein by labeling in fibroblasts: increase in the expression of the Clock protein
Clock protein [4]
  Amount of Clock protein compared with untreated skin: slightly greater
Per-1 protein [5]
  Amount of Per-1 protein compared with untreated skin: greater
Clock protein [6]
  Intensity (%) of Clock protein, western blot: 179%
